Legend:
RON = RON (Homo sapiens, UniProt Q04912); test: Evaluation of inhibitory activity against RON (TR-FRET); assay type: biochemical; conditions: TR-FRET enzyme assay, RON protein, ULight-labeled Poly GT substrate, ATP
Method: In order to measure the inhibitory activity of each of the compounds of Examples against RON, the IC50 of each of the compounds was measured using Time-resolved fluorescence energy transfer (TR-FRET).
(§1) Specifically, the compound was prepared to a concentration of 1 mM in 100% DMSO and was diluted 10 times in a stepwise manner through 3-fold dilution. The compound (2 μL) diluted in a stepwise manner was added to a 96-well-plate containing 48 μL of a 1× kinase reaction buffer (50 mM HEPES (pH 7.4), 0.01% Tween-20, 5 mM DTT, 0.5 mM Na3VO4, 2 mM EGTA, 10 mM MgCl2).
The RON protein was diluted to a concentration of 49.3 nM in a RON storage buffer (50 mM Tris-HCl (pH 7.5), 150 mM NaCl, 0.5 mM EDTA, 0.02% Triton X-100), and then diluted again to a concentration of 0.4 nM in a 1× kinase reaction buffer. As a substrate cocktail, a RON-specific substrate mixed solution (40 uM ULight-labeled Poly GT, 100 nM ATP) was prepared at a concentration 2 times the final reaction concentration.
(§2) Thereafter, a 384-well-plate was prepared, and 2.5 μL of each of the diluted compounds of Examples was added to a corresponding well of experimental group wells, and 2.5 μL of a 4% DMSO solution was dispensed into high control wells and low control wells.
(§3) Thereafter, 2.5 μL of 0.4 nM RON was dispensed into each of the high control wells and the experimental group wells, and 2.5 μL of the 1× kinase reaction buffer was added to the low control wells, and all the wells were centrifuged at room temperature for 40 seconds at 1,000 RPM, and then incubated at room temperature for 20-30 minutes. Then, 5 μL of the substrate cocktail (2×) was dispensed into each well, and all the wells were centrifuged at room temperature for 40 seconds at 1,000 RPM, and then incubated at room temperature for 60 minutes. Thereafter, 5 μL of 30 mM EDTA was added to each well to terminate the reaction, and all the wells were then incubated again at room temperature for 5 minutes. Thereafter, 5 μL of a 4× phosphotyrosine antibody (Perkin Elmer) containing europium was added to each well, and all the wells were then incubated at room temperature for 60 minutes. After the incubation, the 384-well-plate was read with the Vison plate reader. In this case, the excitation wavelength was 340 nm, and the emission wavelength was 620 nm and 665 nm. The IC50 value of each compound of Examples was derived using the GraphPd Prism7 program.

cMET = cMET (Homo sapiens, UniProt P08581); test: Evaluation of inhibitory activity against MET (TR-FRET); assay type: biochemical; conditions: TR-FRET enzyme assay, cMET protein, TK peptide substrate, ATP
Chain of cMET (P08581 25-1390): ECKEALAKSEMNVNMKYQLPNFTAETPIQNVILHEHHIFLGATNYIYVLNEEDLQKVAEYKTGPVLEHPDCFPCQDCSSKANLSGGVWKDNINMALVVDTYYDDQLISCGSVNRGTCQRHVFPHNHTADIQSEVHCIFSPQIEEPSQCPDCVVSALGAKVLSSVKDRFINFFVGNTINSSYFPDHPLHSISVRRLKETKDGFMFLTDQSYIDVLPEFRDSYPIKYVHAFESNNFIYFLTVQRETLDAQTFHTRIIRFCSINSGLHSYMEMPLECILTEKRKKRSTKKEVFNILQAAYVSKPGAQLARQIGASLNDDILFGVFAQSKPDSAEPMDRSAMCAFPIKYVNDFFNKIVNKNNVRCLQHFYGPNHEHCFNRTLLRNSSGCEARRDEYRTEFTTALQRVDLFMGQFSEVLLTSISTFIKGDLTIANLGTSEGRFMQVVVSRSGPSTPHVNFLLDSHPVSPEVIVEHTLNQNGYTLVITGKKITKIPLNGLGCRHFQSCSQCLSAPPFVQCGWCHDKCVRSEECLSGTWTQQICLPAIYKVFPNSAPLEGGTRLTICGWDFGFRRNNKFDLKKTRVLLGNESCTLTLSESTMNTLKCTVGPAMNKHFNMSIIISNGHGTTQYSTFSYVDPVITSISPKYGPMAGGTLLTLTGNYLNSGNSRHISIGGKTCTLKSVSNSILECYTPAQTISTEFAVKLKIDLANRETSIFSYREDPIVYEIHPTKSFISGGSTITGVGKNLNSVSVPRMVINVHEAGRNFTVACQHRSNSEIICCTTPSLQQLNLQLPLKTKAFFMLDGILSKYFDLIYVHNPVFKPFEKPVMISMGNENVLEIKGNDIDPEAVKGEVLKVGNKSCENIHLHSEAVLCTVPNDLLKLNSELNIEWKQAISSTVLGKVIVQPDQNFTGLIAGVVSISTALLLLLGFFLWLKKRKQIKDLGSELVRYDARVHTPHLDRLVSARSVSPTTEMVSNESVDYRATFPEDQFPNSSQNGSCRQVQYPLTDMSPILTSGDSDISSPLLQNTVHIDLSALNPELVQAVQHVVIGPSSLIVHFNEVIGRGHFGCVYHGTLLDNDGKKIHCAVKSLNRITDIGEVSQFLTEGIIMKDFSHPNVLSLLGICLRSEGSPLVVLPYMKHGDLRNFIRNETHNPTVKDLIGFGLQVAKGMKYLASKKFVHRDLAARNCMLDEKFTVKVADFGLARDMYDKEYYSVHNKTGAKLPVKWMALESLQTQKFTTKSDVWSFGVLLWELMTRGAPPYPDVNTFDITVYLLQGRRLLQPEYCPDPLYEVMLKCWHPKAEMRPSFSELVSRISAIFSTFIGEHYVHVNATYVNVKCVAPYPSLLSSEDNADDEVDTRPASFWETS
Method: In addition, in order to measure the enzyme activity inhibition for cMET, the evaluation was performed in the same manner as the enzyme activity inhibition measurement experiment for RON.
as §1, with “7.4), 0.05% BSA, 0.005%” for “7.4), 0.01%”, “Tween-20, 1” for “Tween-20, 5”, “mM MnCl2, 20” for “mM Na3VO4, 2 mM EGTA, 10”
The cMET protein was diluted to a concentration of 263 nM in a cMET storage buffer (50 mM Tris-HCl (pH 7.5), 150 mM NaCl, 0.05% Brij35, 1 mM DTT, 10% Glycerol), and then diluted again to a concentration of 2 nM in a 1× kinase reaction buffer. As a substrate cocktail, a MET-specific substrate mixed solution (5 μM TK peptide, 10 mM ATP) was prepared at a concentration 2 times the final reaction concentration.
as §2
as §3, with “of 2” for “of 0.4”, “nM cMET” for “nM RON”, “of 90” for “of 30”

Chain of RON (Q04912 25-1400, species assumed): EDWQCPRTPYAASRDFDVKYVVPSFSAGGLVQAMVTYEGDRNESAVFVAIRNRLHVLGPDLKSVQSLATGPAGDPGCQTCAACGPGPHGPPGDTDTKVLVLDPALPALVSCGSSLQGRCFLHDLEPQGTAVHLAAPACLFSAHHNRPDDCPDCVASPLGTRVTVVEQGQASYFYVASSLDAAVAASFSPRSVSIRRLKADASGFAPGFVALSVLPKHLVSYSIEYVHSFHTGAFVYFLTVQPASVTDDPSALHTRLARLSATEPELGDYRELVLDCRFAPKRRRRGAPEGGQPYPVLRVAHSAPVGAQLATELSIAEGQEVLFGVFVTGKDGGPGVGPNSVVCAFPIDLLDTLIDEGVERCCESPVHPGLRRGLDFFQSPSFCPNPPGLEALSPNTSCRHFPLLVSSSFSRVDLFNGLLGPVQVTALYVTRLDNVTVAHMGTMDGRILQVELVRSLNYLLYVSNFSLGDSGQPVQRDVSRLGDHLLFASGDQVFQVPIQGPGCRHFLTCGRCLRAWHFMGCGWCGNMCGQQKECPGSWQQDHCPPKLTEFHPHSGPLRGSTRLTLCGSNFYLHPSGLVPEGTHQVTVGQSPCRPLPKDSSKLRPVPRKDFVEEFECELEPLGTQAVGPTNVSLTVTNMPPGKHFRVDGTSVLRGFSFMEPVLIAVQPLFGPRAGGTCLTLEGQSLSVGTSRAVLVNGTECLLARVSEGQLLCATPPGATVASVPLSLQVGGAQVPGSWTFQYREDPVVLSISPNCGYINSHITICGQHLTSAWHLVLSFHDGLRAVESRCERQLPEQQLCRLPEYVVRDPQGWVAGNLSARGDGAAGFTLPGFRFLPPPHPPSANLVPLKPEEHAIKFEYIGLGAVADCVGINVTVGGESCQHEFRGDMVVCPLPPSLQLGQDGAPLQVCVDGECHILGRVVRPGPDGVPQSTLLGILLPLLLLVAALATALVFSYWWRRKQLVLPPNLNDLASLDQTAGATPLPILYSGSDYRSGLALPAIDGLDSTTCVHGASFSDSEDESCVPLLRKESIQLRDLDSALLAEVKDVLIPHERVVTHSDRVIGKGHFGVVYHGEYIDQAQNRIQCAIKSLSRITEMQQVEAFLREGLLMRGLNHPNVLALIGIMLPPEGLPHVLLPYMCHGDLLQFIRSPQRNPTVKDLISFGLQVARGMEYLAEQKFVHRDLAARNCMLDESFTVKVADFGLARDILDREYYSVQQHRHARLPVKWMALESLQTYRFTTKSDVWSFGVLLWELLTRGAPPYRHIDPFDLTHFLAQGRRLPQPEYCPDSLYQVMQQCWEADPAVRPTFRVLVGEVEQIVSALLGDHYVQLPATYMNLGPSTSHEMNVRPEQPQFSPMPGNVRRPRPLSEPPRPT

SMILES	IC50 (RON)	IC50 (cMET)
CCOc1ccn(-c2ccc(F)cc2)c(=O)c1C(=O)Nc1ccc(-c2ccc3c(N)n[nH]c3c2)c(F)c1 [Example 18, N-(4-(3-amino-1H-indazol-6-yl)-3-fluorophenyl)-4-ethoxy-1-(4-fluorophenyl)-2-oxo-1,2-dihydropyridine-3-carboxamide]	467 nM	496 nM
CCOc1ccn(-c2ccc(F)cc2)c(=O)c1C(=O)Nc1ccc(-c2ccc3[nH]ncc3c2)c(F)c1 [Example 19]		6540 nM
Cc1ccc(C(=O)Nc2ccc(Oc3ccnc(N(C(=O)C4CC4)C(=O)C4CC4)c3Cl)c(F)c2)c(=O)n1-c1ccc(F)cc1 [Example 31, N-(4-((3-chloro-2-(N-(cyclopropanecarbonyl)cyclopropanecarboxamido)pyridin-4-yl)oxy)-3-fluorophenyl)-1-(4-fluorophenyl)-6-methyl-2-oxo-1,2-dihydropyridine-3-carboxamide]		3550 nM
COc1ccn(-c2ccc(F)cc2)c(=O)c1C(=O)Nc1ccc(-c2ccnc(-c3ccnc(N)n3)c2)c(F)c1 [Example 15, N-(4-(2-(2-aminopyrimidin-4-yl)pyridin-4-yl)-3-fluorophenyl)-1-(4-fluorophenyl)-4-methoxy-2-oxo-1,2-dihydropyridine-3-carboxamide]		4860 nM
Cc1ccc(C(=O)Nc2ccc(Oc3ccnc(N)c3Cl)c(F)c2)c(=O)n1-c1ccc(F)cc1 [Example 25, N-(4-((2-amino-3-chloropyridin-4-yl)oxy)-3-fluorophenyl)-1-(4-fluorophenyl)-6-methyl-2-oxo-1,2-dihydropyridine-3-carboxamide]	1 nM	2 nM
CCOc1ccn(-c2ccc(F)cc2)c(=O)c1C(=O)Nc1ccc(-c2ccc3snc(N)c3c2)c(F)c1 [Example 21, N-(4-(3-aminobenzo[d]isothiazol-5-yl)-3-fluorophenyl)-4-ethoxy-1-(4-fluorophenyl)-2-oxo-1,2-dihydropyridine-3-carboxamide]		6030 nM
Nc1nccc(Oc2ccc(NC(=O)c3ccc(CO)n(-c4ccc(F)cc4)c3=O)cc2F)c1Cl [Example 26, N-(4-((2-amino-3-chloropyridin-4-yl)oxy)-3-fluorophenyl)-1-(4-fluorophenyl)-6-(hydroxymethyl)-2-oxo-1,2-dihydropyridine-3-carboxamide]	3 nM	3 nM
Cc1ccc(C(=O)Nc2ccc(NC(=O)c3cc(-c4cnn(C)c4)cnc3N)c(F)c2)c(=O)n1-c1ccc(F)cc1 [Example 34, 2-amino-N-(2-fluoro-4-(1-(4-fluorophenyl)-6-methyl-2-oxo-1,2-dihydropyridin-3-carboxamido)phenyl)-5-(1-methyl-1H-pyrazol-4-yl)nicotinamide]	7880 nM	1560 nM
Cc1ccc(C(=O)Nc2ccc(Oc3cc(Cl)nn4ccnc34)c(F)c2)c(=O)n1-c1ccc(F)cc1 [Example 6, N-(4-((6-chloroimidazo[1,2-b]pyridazin-8-yl)oxy)-3-fluorophenyl)-1-(4-fluorophenyl)-6-methyl-2-oxo-1,2-dihydropyridine-3-carboxamide]		8270 nM
Cc1ccc(C(=O)Nc2ccc(Oc3ncnc(N)c3Cl)c(F)c2)c(=O)n1-c1ccc(F)cc1 [Example 36, N-(4-((6-amino-5-chloropyrimidin-4-yl)oxy)-3-fluorophenyl)-1-(4-fluorophenyl)-6-methyl-2-oxo-1,2-dihydropyridine-3-carboxamide]	7 nM	14 nM
CCOc1ccn(-c2ccc(F)cc2)c(=O)c1C(=O)Nc1ccc(-c2ccc3nc(N)sc3n2)c(C)c1 [Example 1, N-(4-(2-aminothiazolo[5,4-b]pyridin-5-yl)-3-methylphenyl)-4-ethoxy-1-(4-fluorophenyl)-2-oxo-1,2-dihydropyridine-3-carboxamide]	5120 nM	5230 nM
Nc1nccc(Oc2ccc(NC(=O)c3ccc(C(F)(F)F)n(-c4ccc(F)cc4)c3=O)cc2F)c1Cl [Example 28, N-(4-((2-amino-3-chloropyridin-4-yl)oxy)-3-fluorophenyl)-1-(4-fluorophenyl)-2-oxo-6-(trifluoromethyl)-1,2-dihydropyridine-3-carboxamide]	8 nM	18 nM
Cc1c(C(=O)Nc2ccc(Oc3ccnc(N)c3Cl)c(F)c2)c(=O)n(-c2ccccc2)n1CC(C)(C)O [Example 29, N-(4-((2-amino-3-chloropyridin-4-yl)oxy)-3-fluorophenyl)-1-(2-hydroxy-2-methylpropyl)-5-methyl-3-oxo-2-phenyl-2,3-dihydro-1H-pyrazole-4-carboxamide]	82 nM	54 nM
Cc1ccc(C(=O)Nc2ccc(-c3ccnc(-c4ccnc(N)n4)c3)c(F)c2)c(=O)n1-c1ccc(F)cc1 [Example 16, N-(4-(2-(2-aminopyrimidin-4-yl)pyridin-4-yl)-3-fluorophenyl)-1-(4-fluorophenyl)-6-methyl-2-oxo-1,2-dihydropyridine-3-carboxamide]		1490 nM
Cc1c(C(=O)Nc2ccc(Oc3ccnc(N)c3Cl)c(F)c2)c(=O)n(-c2ccccc2)n1C [Example 24, N-(4-((2-amino-3-chloropyridin-4-yl)oxy)-3-fluorophenyl)-1,5-dimethyl-3-oxo-2-phenyl-2,3-dihydro-1H-pyrazole-4-carboxamide]	44 nM	11 nM
CCOc1ccn(-c2ccc(F)cc2)c(=O)c1C(=O)Nc1ccc(Nc2ccc3nc(N)sc3n2)c(F)c1 [Example 3, N-(4-((2-aminothiazolo[5,4-b]pyridin-5-yl)amino)-3-fluorophenyl)-4-ethoxy-1-(4-fluorophenyl)-2-oxo-1,2-dihydropyridine-3-carboxamide]		6720 nM
Nc1nccc(Oc2ccc(NC(=O)c3cc(C4CC4)cn(-c4ccc(F)cc4)c3=O)cc2F)c1Cl [Example 27, N-(4-((2-amino-3-chloropyridin-4-yl)oxy)-3-fluorophenyl)-5-cyclopropyl-1-(4-fluorophenyl)-2-oxo-1,2-dihydropyridine-3-carboxamide]	2 nM	6 nM
Cc1ccc(C(=O)Nc2ccc(Oc3ccnc(NC(=O)C4CC4)c3Cl)c(F)c2)c(=O)n1-c1ccc(F)cc1 [Example 30, N-(4-((3-chloro-2-(cyclopropanecarboxamido)pyridin-4-yl)oxy)-3-fluorophenyl)-1-(4-fluorophenyl)-6-methyl-2-oxo-1,2-dihydropyridine-3-carboxamide]	25 nM	12 nM
Cc1ccc(C(=O)Nc2ccc(NC(=O)c3cc(Br)cnc3N)c(F)c2)c(=O)n1-c1ccc(F)cc1 [Example 32, 2-amino-5-bromo-N-(2-fluoro-4-(1-(4-fluorophenyl)-6-methyl-2-oxo-1,2-dihydropyridine-3-carboxamido)phenyl)nicotinamide]		1690 nM
